Inconclusive results and toxic doses are left out. No stated cut-off is given here; in the data, active means T/C of 150% or more; inactive means T/C below 125%.
System: L1210 leukemia ip in BDF1 mice, survival T/C
Experiment: NCI In Vivo Anticancer Drug Screen. Data for tumor model L1210 Leukemia (intraperitoneal) in B6D2F1 (BDF1) mice
Conditions: endpoint: mean survival time, higher = longer survival
In short: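 Tumor was transplanted into mice, which were then dosed with test compound or vehicle alone. Survival was recorded for each group, and the treated figure was expressed relative to the control figure.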

[1] = dose: 100.0 mg/kg/injection, schedule: Q01DX001 (ip), vehicle: saline
[2] = dose: 200.0 mg/kg/injection, schedule: Q01DX001 (ip), vehicle: saline
[3] = dose: 400.0 mg/kg/injection, schedule: Q01DX001 (ip), vehicle: saline
[4] = dose: 100.0 mg/kg/injection, schedule: Q04DX003 (ip), vehicle: saline with Tween-80
[5] = dose: 200.0 mg/kg/injection, schedule: Q04DX003 (ip), vehicle: saline with Tween-80
[6] = dose: 400.0 mg/kg/injection, schedule: Q04DX003 (ip), vehicle: saline with Tween-80
[7] = dose: 100.0 mg/kg/injection, schedule: Q01DX009 (ip), vehicle: Klucel (hydroxypropylcellulose) (HPC)
[8] = dose: 100.0 mg/kg/injection, schedule: Q04DX003 (ip), vehicle: Klucel (hydroxypropylcellulose) (HPC)
[9] = dose: 200.0 mg/kg/injection, schedule: Q01DX009 (ip), vehicle: Klucel (hydroxypropylcellulose) (HPC)
[10] = dose: 200.0 mg/kg/injection, schedule: Q04DX003 (ip), vehicle: Klucel (hydroxypropylcellulose) (HPC)
[11] = dose: 400.0 mg/kg/injection, schedule: Q04DX003 (ip), vehicle: Klucel (hydroxypropylcellulose) (HPC)
[12] = dose: 400.0 mg/kg/injection, schedule: Q01DX009 (ip), vehicle: Klucel (hydroxypropylcellulose) (HPC)

Measured: T/C

Cc1c2ccnc(-c3ccccc3)c2cc2c1[nH]c1ccccc12
inactive: dose: 31.3 mg/kg/injection, schedule: Q01DX Z (ip), vehicle: other 98 % of control | dose: 62.5 mg/kg/injection, schedule: Q01DX Z (ip), vehicle: other 101 % of control | dose: 100.0 mg/kg/injection, schedule: Q01DX001 (ip), vehicle: carboxymethylcellulose (CMC) 108 % of control | dose: 125.0 mg/kg/injection, schedule: Q01DX015 (oral), vehicle: carboxymethylcellulose (CMC) 102 % of control | dose: 125.0 mg/kg/injection, schedule: Q01DX Z (ip), vehicle: other 101 % of control | dose: 200.0 mg/kg/injection, schedule: Q01DX001 (ip), vehicle: carboxymethylcellulose (CMC) 103 % of control | dose: 250.0 mg/kg/injection, schedule: Q01DX015 (oral), vehicle: carboxymethylcellulose (CMC) 93 % of control | dose: 250.0 mg/kg/injection, schedule: Q01DX Z (ip), vehicle: other 91 % of control | dose: 400.0 mg/kg/injection, schedule: Q01DX001 (ip), vehicle: carboxymethylcellulose (CMC) 97 % of control | dose: 500.0 mg/kg/injection, schedule: Q01DX015 (oral), vehicle: carboxymethylcellulose (CMC) 93 % of control

C=CC1C(OCC)(OCC)CS1(=O)=O (centres undefined)
inactive: [1] 93 % of control | dose: 100.0 mg/kg/injection, schedule: Q01DX009 (ip), vehicle: acetone 106 % of control | [2] 98 % of control | dose: 200.0 mg/kg/injection, schedule: Q01DX009 (ip), vehicle: acetone 100 % of control | [3] 95 % of control | dose: 400.0 mg/kg/injection, schedule: Q01DX009 (ip), vehicle: acetone 106 % of control

NNC(=O)CCc1ccccc1Br
inactive: [4] 99 % of control | [5] 92 % of control

CC(=O)NC(C)C
inactive: [4] 93 % of control | [5] 100 % of control | [6] 96 % of control

O=C(/C(Br)=C/c1ccccc1)/C(Br)=C/c1ccccc1
inactive: dose: 100.0 mg/kg/injection, schedule: Q01DX001 (ip), vehicle: saline sonified 97 % of control | dose: 100.0 mg/kg/injection, schedule: Q01DX009 (ip), vehicle: saline with Tween-80 109 % of control | dose: 200.0 mg/kg/injection, schedule: Q01DX001 (ip), vehicle: saline sonified 98 % of control | dose: 200.0 mg/kg/injection, schedule: Q01DX009 (ip), vehicle: saline with Tween-80 93 % of control | dose: 400.0 mg/kg/injection, schedule: Q01DX001 (ip), vehicle: saline sonified 93 % of control | dose: 400.0 mg/kg/injection, schedule: Q01DX009 (ip), vehicle: saline with Tween-80 94 % of control

O=C(O)c1ccc(-c2ccccc2)cc1
inactive: dose: 50.0 mg/kg/injection, schedule: Q01DX Z (ip), vehicle: carboxymethylcellulose (CMC) 92 % of control | [7] 95 % of control | dose: 100.0 mg/kg/injection, schedule: Q01DX Z (ip), vehicle: carboxymethylcellulose (CMC) 93 % of control | [8] 104 % of control | [9] 98 % of control | dose: 200.0 mg/kg/injection, schedule: Q01DX Z (ip), vehicle: carboxymethylcellulose (CMC) 97 % of control | [10] 93 % of control | [11] 104 % of control

O=C(CNC(=O)C1CCCN1Sc1ccc([N+](=O)[O-])cc1[N+](=O)[O-])NCC(=O)OCc1ccccc1 (centres undefined)
inactive: dose: 100.0 mg/kg/injection, schedule: Q01DX001 (ip), vehicle: Klucel (hydroxypropylcellulose) (HPC) 98 % of control | dose: 200.0 mg/kg/injection, schedule: Q01DX001 (ip), vehicle: Klucel (hydroxypropylcellulose) (HPC) 103 % of control | dose: 400.0 mg/kg/injection, schedule: Q01DX001 (ip), vehicle: Klucel (hydroxypropylcellulose) (HPC) 98 % of control

COc1cc(C(=O)N/N=C/N(C)C)cc(OC)c1OC
inactive: dose: 75.0 mg/kg/injection, schedule: Q01DX009 (ip), vehicle: Klucel (hydroxypropylcellulose) (HPC) 109 % of control | [8] 99 % of control | dose: 150.0 mg/kg/injection, schedule: Q01DX009 (ip), vehicle: Klucel (hydroxypropylcellulose) (HPC) 102 % of control | [10] 99 % of control | dose: 300.0 mg/kg/injection, schedule: Q01DX009 (ip), vehicle: Klucel (hydroxypropylcellulose) (HPC) 89 % of control | [11] 100 % of control

CCCCCOP(=O)(OCCCCC)C(c1ccccc1)c1ccccc1
inactive: dose: 100.0 mg/kg/injection, schedule: Q04DX002 (ip), vehicle: saline 100 % of control | dose: 200.0 mg/kg/injection, schedule: Q04DX002 (ip), vehicle: saline 100 % of control | dose: 400.0 mg/kg/injection, schedule: Q04DX002 (ip), vehicle: saline 96 % of control

CCOC(=O)c1ccc(NC(=O)Nc2cccc(C(C)=O)c2)cc1
inactive: [7] 95 % of control | [9] 93 % of control | [12] 101 % of control

O=C(Nc1ccc(S(=O)(=O)NC2CCCCC2)cc1)OCc1ccccc1
inactive: [1] 95 % of control | [2] 89 % of control | [3] 95 % of control

CC(C)(C)C(=O)CC(=O)C(C)(C)C.CC(C)(C)C(=O)CC(=O)C(C)(C)C.CC(C)(C)C(=O)CC(=O)C(C)(C)C.CC(C)(C)C(=O)CC(=O)C(C)(C)C.[Hf]
inactive: [7] 100 % of control | [8] 97 % of control | [9] 100 % of control | [10] 97 % of control | [12] 100 % of control | [11] 100 % of control

COC(=O)C1C2C=CC(O2)C1C(=O)OC (centres undefined)
inactive: dose: 100.0 mg/kg/injection, schedule: Q01DX009 (ip), vehicle: carboxymethylcellulose (CMC) 98 % of control | dose: 100.0 mg/kg/injection, schedule: Q01DX009 (ip), vehicle: other 101 % of control | dose: 200.0 mg/kg/injection, schedule: Q01DX009 (ip), vehicle: carboxymethylcellulose (CMC) 102 % of control | dose: 200.0 mg/kg/injection, schedule: Q01DX009 (ip), vehicle: other 102 % of control | dose: 400.0 mg/kg/injection, schedule: Q01DX009 (ip), vehicle: carboxymethylcellulose (CMC) 96 % of control | dose: 400.0 mg/kg/injection, schedule: Q01DX009 (ip), vehicle: other 101 % of control

CCOP(=O)(OCC)Oc1c(Cl)c(Cl)c(OC(=O)Nc2cc(Cl)ccc2Cl)c(Cl)c1Cl
inactive: dose: 25.0 mg/kg/injection, schedule: Q04DX002 (ip), vehicle: saline with Tween-80 90 % of control | dose: 50.0 mg/kg/injection, schedule: Q04DX002 (ip), vehicle: saline with Tween-80 97 % of control | dose: 100.0 mg/kg/injection, schedule: Q04DX002 (ip), vehicle: saline with Tween-80 94 % of control

CN(C)/C(=C\C(=O)c1ccccc1)c1ccccc1
inactive: [4] 90 % of control | [6] 86 % of control

O=CN1CCCC1C(=O)O (centres undefined)
inactive: dose: 25.0 mg/kg/injection, schedule: Q01DX009 (ip), vehicle: water 98 % of control | dose: 50.0 mg/kg/injection, schedule: Q01DX009 (ip), vehicle: water 101 % of control | dose: 100.0 mg/kg/injection, schedule: Q01DX009 (ip), vehicle: water 95 % of control | dose: 200.0 mg/kg/injection, schedule: Q01DX009 (ip), vehicle: water 101 % of control

— PubChem BioAssay AID248 (DTP/NCI, 2004)
